Results taken from a melting point compilation (Tetko et al.).

For `COc1ccc(C(=O)NC(C(=O)O)c2ccccc2)cc1` (stereo unspecified), which melting point is on record?
The melting point was 187 to 189 °C.

Which melting point does the source give for `CCc1[nH]n(C)c(=N)c1-c1ccc2c(c1)OCO2` here?
The melting point was 154 to 156 °C.

For `O=C(O)CCC(=O)Nc1nccs1`, which melting point is on record?
The melting point was 257 to 259 °C.

With `CCN(CC)S(=O)(=O)c1ccc(N2CCCC2)c(C(=O)O)c1` as the compound, how does the melting point read?
Its melting point is 141 to 144 °C.

For `Nc1ccc(Oc2ccc(F)cc2)nc1`, which melting point is on record?
Its melting point is 47 to 49 °C.

With `O=C(O)C1CCCOC1c1ccccc1` (stereo unspecified) as the compound, how does the melting point read?
The melting point was 56 to 58 °C.

For `Cc1cc(NC(=O)CN2CCNCC2)no1`, which melting point is on record?
The melting point was 114 to 116 °C.

With `CC1(c2ccc(C(F)(F)F)cc2)NC(=O)NC1=O` (stereo unspecified) as the compound, how does the melting point read?
The melting point was 169 to 171 °C.

Which melting point does the source give for `CCOC(=O)c1c(N)sc2c1CCN(C(=O)OCC)C2` here?
Its melting point is 145 to 147 °C.

Which melting point does the source give for `O=[N+]([O-])c1sccc1Br` here?
The melting point was 80 to 82 °C.

With `OCCn1ncc2ccccc21` as the compound, how does the melting point read?
The melting point was 48 to 50 °C.

For `O=C(CN1CCNCC1)Nc1cccc(F)c1`, which melting point is on record?
Its melting point is 68 to 70 °C.

Which melting point does the source give for `O=C(O)C1(Cc2cccc(Cl)c2)CCCC1` here?
Its melting point is 60 to 62 °C.

Which melting point does the source give for `OCCOc1ccccc1C(F)(F)F` here?
The melting point was 74 to 76 °C.

With `CCN(CC)S(=O)(=O)c1ccc2nc(O)cc(C(=O)O)c2c1` as the compound, how does the melting point read?
Its melting point is 310 to 312 °C.

Which melting point does the source give for `O=C(CCl)Nc1ccccc1C(=O)Nc1ccc2c(c1)OCO2` here?
Its melting point is 169 to 171 °C.

Which melting point does the source give for `CC(C)N(CCC#N)S(C)(=O)=O` here?
Its melting point is 107 to 109 °C.

With `Cc1nc(-c2ncccn2)sc1C(=O)O` as the compound, how does the melting point read?
The melting point was 224 to 226 °C.

Which melting point does the source give for `Cc1ccc(N2CC(C(=O)O)CC2=O)cc1` (stereo unspecified) here?
Its melting point is 184 to 186 °C.

Which melting point does the source give for `CC(N)(CO)C1CCCCC1` (stereo unspecified) here?
Its melting point is 80 to 82 °C.

With `Cc1nc2ccccn2c1I` as the compound, how does the melting point read?
Its melting point is 123 to 125 °C.

For `Cc1ccc(-n2nc(C(C)C)cc2N)cc1`, which melting point is on record?
Its melting point is 47 to 49 °C.

With `Nc1nc(Br)cn2ccnc12` as the compound, how does the melting point read?
Its melting point is 215 to 217 °C.

For `Fc1ccc(NCc2cccnc2)c(F)c1`, which melting point is on record?
Its melting point is 87 to 89 °C.

For `CCOC(C)c1ncc[nH]1` (stereo unspecified), which melting point is on record?
Its melting point is 69 to 71 °C.

Which melting point does the source give for `Nc1cccc(C(=O)CCC(=O)O)c1` here?
The melting point was 126 to 128 °C.

Which melting point does the source give for `O=[N+]([O-])c1cc(O)cc(F)c1` here?
Its melting point is 111 to 113 °C.

Which melting point does the source give for `O=C(O)c1ccccc1Cc1nc2ccccc2s1` here?
The melting point was 182 to 184 °C.

For `CC(=O)Nc1ccc(OCC2CO2)cc1` (stereo unspecified), which melting point is on record?
Its melting point is 117 to 119 °C.

With `O=C(Nc1cnccn1)C1CCCNC1` (stereo unspecified) as the compound, how does the melting point read?
Its melting point is 141 to 143 °C.

With `Cc1ccc(S(=O)(=O)Oc2ncnc3c(F)cc(Br)cc23)cc1` as the compound, how does the melting point read?
Its melting point is 204 to 206 °C.

With `O=C(O)c1cncc(N2CCOCC2)c1` as the compound, how does the melting point read?
The melting point was 258 to 260 °C.

For `Nc1nc(-c2cccs2)cs1`, which melting point is on record?
Its melting point is 136 to 138 °C.

For `CCOC(=O)c1c(-c2ccccc2)csc1NC(=O)C(C)Cl` (stereo unspecified), which melting point is on record?
The melting point was 250 to 252 °C.

For `CCOc1ccccc1-n1nnnc1S`, which melting point is on record?
Its melting point is 53 to 55 °C.

Which melting point does the source give for `CC(=O)NCc1ccc(C(=O)CCl)cc1` here?
The melting point was 139 to 141 °C.

For `CCc1nc2ccccc2n1CC(=O)O`, which melting point is on record?
Its melting point is 232 to 234 °C.

For `O=C(O)C1CC2CCCCC2N1C(=O)OCC1c2ccccc2-c2ccccc21` (stereo unspecified), which melting point is on record?
Its melting point is 169 to 171 °C.

Which melting point does the source give for `CC(C)Cn1ncc(C(=O)O)c1C(F)F` here?
Its melting point is 99 to 101 °C.

With `O=C(Nc1cccc(N2CCOC2=O)c1)OCC(F)(F)F` as the compound, how does the melting point read?
Its melting point is 152 to 154 °C.

Which melting point does the source give for `Cc1cccc(N)c1C(N)=O` here?
The melting point was 141 to 143 °C.

Which melting point does the source give for `O=[N+]([O-])c1ccc(O)cc1Cl` here?
Its melting point is 115 to 117 °C.

With `N#Cc1ccc(CSCC(=O)O)cc1` as the compound, how does the melting point read?
Its melting point is 86 to 88 °C.

For `O=C(Nc1ccccc1F)Nc1cccc2c1CCCN2`, which melting point is on record?
Its melting point is 204 to 206 °C.

With `O=C(Nc1cc(Cl)ccc1Cl)OCC(F)(F)F` as the compound, how does the melting point read?
The melting point was 110 to 112 °C.

For `N#CCc1cccc(C(N)=O)c1`, which melting point is on record?
The melting point was 157 to 159 °C.

With `O=C(Cc1ccccc1)c1nc2ccccc2s1` as the compound, how does the melting point read?
The melting point was 110 to 112 °C.

Which melting point does the source give for `CC(Cl)C(=O)NC1CCN(Cc2ccccc2)CC1` (stereo unspecified) here?
Its melting point is 119 to 121 °C.

With `O=C(CCl)NCC1(c2ccccc2)CCC1` as the compound, how does the melting point read?
Its melting point is 95 to 97 °C.

Which melting point does the source give for `N#Cc1cc([N+](=O)[O-])ccc1S(=O)(=O)Cl` here?
Its melting point is 99 to 101 °C.

With `Nc1ccc(C(=O)NCCN2CCOCC2)cc1` as the compound, how does the melting point read?
The melting point was 157 to 159 °C.

Which melting point does the source give for `CCOC(=O)c1c(C)[nH]c(C(=O)CCl)c1C` here?
The melting point was 188 to 190 °C.

Which melting point does the source give for `COCCc1noc(-c2cc(Cl)ccc2N)n1` here?
Its melting point is 93 to 95 °C.

For `O=C(CCl)NCC(=O)N1CCCC1`, which melting point is on record?
Its melting point is 125 to 127 °C.

With `NCCS(=O)(=O)N1CCSCC1` as the compound, how does the melting point read?
Its melting point is 59 to 61 °C.

Which melting point does the source give for `c1cncc(CNC2=NCCS2)c1` here?
The melting point was 90 to 92 °C.

For `ON=Cc1ccc(Oc2ncccn2)cc1`, which melting point is on record?
The melting point was 177 to 179 °C.

For `COc1ccc(-c2csc(CC#N)n2)cc1OC`, which melting point is on record?
The melting point was 101 to 103 °C.

For `O=C(CCl)Nc1nncs1`, which melting point is on record?
Its melting point is 233 to 235 °C.

Which melting point does the source give for `CCN1C(=O)NC(C)C1=O` (stereo unspecified) here?
The melting point was 51 to 53 °C.

With `CCOc1cc(C(=O)O)cc(Cl)c1O` as the compound, how does the melting point read?
The melting point was 204 to 206 °C.

For `O=c1c(Cl)c(Cl)cnn1-c1ccc(Cl)cc1Cl`, which melting point is on record?
The melting point was 200 to 202 °C.

Which melting point does the source give for `NCC(O)COCc1ccccc1` (stereo unspecified) here?
Its melting point is 74 to 76 °C.

Which melting point does the source give for `Nc1cc(-c2ccc(Br)s2)n[nH]1` here?
Its melting point is 141 to 143 °C.

For `CCOc1ccc(S(=O)(=O)N(CC)CC)cc1N`, which melting point is on record?
Its melting point is 119 to 121 °C.

With `CN(C)S(=O)(=O)c1ccc(N)cc1` as the compound, how does the melting point read?
Its melting point is 119 to 162 °C.

Which melting point does the source give for `O=C(O)C1CCCN1C(=O)c1ccncc1` (stereo unspecified) here?
The melting point was 79 to 81 °C.

With `NS(=O)(=O)c1ccc(N2CCNCC2)cc1` as the compound, how does the melting point read?
The melting point was 219 to 221 °C.

For `COCc1cccc2sc(N)nc12`, which melting point is on record?
Its melting point is 139 to 141 °C.

Which melting point does the source give for `O=C(CCl)N1CCCC1c1ccc2c(c1)OCCO2` (stereo unspecified) here?
The melting point was 168 to 169 °C.

With `Cc1cc(C)c(S(N)(=O)=O)cc1C` as the compound, how does the melting point read?
The melting point was 179 to 181 °C.
